Results published in patent US9328083B2, “2-aminated methylene or 2-esterified methylene tanshinone derivatives, and preparation method and application thereof” (HANGZHOU BENSHENG PHARMACEUTICAL CO., LTD., priority 2011, dated 2016).
≈ marks a conversion by molar mass, not a printed value.

Experiments:
[1] = background statement; cited from earlier work
tumor-bearing nude mice = settings: literature; cited from earlier work
Hep G2 cells = settings: in vitro, literature; cited from earlier work
[2] = tested on: Kasumi-1 (acute myeloid leukemia M2 type, AML-M2); experiment: MTT growth inhibition of leukemia cells, 72 h; assay type: cell-based, human; settings: Kasumi-1, 72 h
Outline: (§1)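 6000 cells/well, RPMI-1640 + 10% FBS; compounds added day 2 (DMSO stock 10 mg/mL, diluted in medium); 72 h, 37 °C, 5% CO2; MTT read-out of viable cells.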

[3] = tested on: K562/adr (drug-resistant, chronic myeloid leukemia, CML); experiment: MTT growth inhibition of leukemia cells, 72 h; assay type: cell-based, human; settings: K562/ADR
Outline: as §1

[4] = tested on: H9 (acute lymphoblastic leukemia, ALL); experiment: MTT growth inhibition of leukemia cells, 72 h; assay type: cell-based, human; settings: H9, 72 h
Outline: as §1

[5] = tested on: Jurkat (acute lymphoblastic leukemia, ALL); experiment: MTT growth inhibition of leukemia cells, 72 h; assay type: cell-based, human; settings: 72 h
Outline: as §1

[6] = tested on: NB4 (acute promyelocytic leukemia, AML); experiment: MTT growth inhibition of leukemia cells, 72 h; assay type: cell-based, human; settings: NB4, 72 h
Outline: as §1

[7] = background statement; cited from earlier work; remark: listed apart in the source
[8] = tested on: SGC-7901 human gastric adenocarcinoma cells; settings: concentration dependent within a certain range, literature; cited from earlier work
[9] = tested on: CaES-17 (esophageal cancer cell); experiment: MTT growth inhibition of human solid tumor cells, 72 h; assay type: cell-based; settings: CaEs-17, 72 h
Outline: (§2)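 Growth medium: DMEM High Glucose, 10% FBS. Seeding density 4000 cells per well, preincubated one day at 37° C/5% CO2 before dosing with derivatives over a concentration range.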

[10] = tested on: MGC 803 (human gastric cancer cell); experiment: as above; assay type: cell-based; settings: MGC-803, 72 h
Outline: as §2

PC-3 (prostate cancer) = experiment: as above; assay type: cell-based; settings: PC-3, 72 h
Outline: as §2

[11] = tested on: U87 MG (malignant glioma cell); experiment: as above; assay type: cell-based; settings: U87-MG, 72 h
Outline: as §2

[12] = tested on: RKO (human colon adenocarcinoma cell); experiment: as above; assay type: cell-based
Outline: as §2

A549 (human lung cancer) = experiment: as above; assay type: cell-based; settings: A549, 72 h
Outline: as §2

[13] = tested on: Hela (human cervical cancer cell); experiment: as above; assay type: cell-based; settings: Hela, 72 h
Outline: as §2

[14] = tested on: CNE (nasopharyngeal carcinoma cell); experiment: as above; assay type: cell-based
Outline: as §2

[15] = tested on: Hep G2 (human liver cancer cell); experiment: as above; assay type: cell-based; settings: Hep G2, 72 h
Outline: as §2

[16] = tested on: Hep-2 (laryngeal carcinoma); experiment: as above; assay type: cell-based; settings: HeP-2, 72 h
Outline: as §2

[17] = tested on: SK-OV-3 (ovarian cancer cell); experiment: as above; assay type: cell-based; settings: SK-OV-3, 72 h
Outline: as §2

[18] = tested on: PANC-1 (pancreatic cancer); experiment: as above; assay type: cell-based; settings: PANC-1, 72 h
Outline: as §2

MG63 (osteosarcoma) = experiment: as above; assay type: cell-based; settings: MG-63, 72 h
Outline: as §2

[19] = tested on: Becap37 (human breast cancer cell); experiment: as above; assay type: cell-based; settings: Becap-37, 72 h
Outline: as §2

[20] = tested on: RPMI8226 (multiple myeloma); experiment: MTT growth inhibition of multiple myeloma cells, 72 h; assay type: cell-based, human; settings: RPMI 8226, 72 h
Outline: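 Viability read by MTT after 72 h at 37° C, 5% CO2: compounds from a 10 mg/mL DMSO stock were diluted in medium and added at several concentrations to 6000 RPMI8226 cells per well in 1640 medium plus 10% FBS.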

- IC50 [2]: 0.99 µg/mL (≈ 3.58 µM)
- IC90 [2]: 3.62 µg/mL (≈ 13.1 µM)
- IC50 [3]: 0.88 µg/mL (≈ 3.19 µM)
- IC90 [3]: 4.17 µg/mL (≈ 15.1 µM)
- IC50 [4]: 3.5 µg/mL (≈ 12.7 µM)
- IC90 [4]: 13.06 µg/mL (≈ 47.3 µM)
- IC50 [5]: 1.74 µg/mL (≈ 6.3 µM)
- IC90 [5]: 8.42 µg/mL (≈ 30.5 µM)
- IC50 [6]: 0.98 µg/mL (≈ 3.55 µM)
- IC90 [6]: 2.50 µg/mL (≈ 9.05 µM)
- IC50 [9]: 3.18 µg/mL (≈ 11.5 µM)
- IC90 [9]: 16.00 µg/mL (≈ 57.9 µM)
- IC50 [10]: 1.62 µg/mL (≈ 5.86 µM)
- IC90 [10]: 9.26 µg/mL (≈ 33.5 µM)
- IC50 (PC-3 (prostate cancer)): 6.63 µg/mL (≈ 24 µM)
- IC90 (PC-3 (prostate cancer)): 10.57 µg/mL (≈ 38.3 µM)
- IC50 [11]: 6.36 µg/mL (≈ 23 µM)
- IC90 [11]: 14.63 µg/mL (≈ 53 µM)
- IC50 [12]: 1.83 µg/mL (≈ 6.62 µM)
- IC90 [12]: >16 µg/mL
- IC50 (A549 (human lung cancer)): 4.03 µg/mL (≈ 14.6 µM)
- IC90 (A549 (human lung cancer)): 17.29 µg/mL (≈ 62.6 µM)
- IC50 [13]: 4 µg/mL (≈ 14.5 µM)
- IC90 [13]: >16 µg/mL
- IC50 [14]: 7.4 µg/mL (≈ 26.8 µM)
- IC90 [14]: >16 µg/mL
- IC50 [15]: 2.19 µg/mL (≈ 7.93 µM)
- IC90 [15]: 22.13 µg/mL (≈ 80.1 µM)
- IC50 [16]: 3.15 µg/mL (≈ 11.4 µM)
- IC90 [16]: >16 µg/mL
- IC50 [17]: >16 µg/mL
- IC90 [17]: >16 µg/mL
- IC50 [18]: 2.7 µg/mL (≈ 9.77 µM)
- IC90 [18]: >16 µg/mL
- IC50 (MG63 (osteosarcoma)): 0.96 µg/mL (≈ 3.47 µM)
- IC90 (MG63 (osteosarcoma)): >16 µg/mL
- IC50 [19]: 3.03 µg/mL (≈ 11 µM)
- IC90 [19]: >16 µg/mL
- IC50 [20]: 0.96 µg/mL (≈ 3.47 µM)
- IC90 [20]: 10.86 µg/mL (≈ 39.3 µM)
SMILES: Cc1coc2c1C(=O)C(=O)c1c-2ccc2c(C)cccc12 [TA, 1,6-dimethyl-phenanthreno [1,2-b]furan-10,11-diketone, reference compound]
- solubility in water [1]: poor solubility in water
- tumor growth in tumor-bearing nude mice (tumor-bearing nude mice): can inhibit the tumor growth in the mice
- proliferation of Hep G2 cells (Hep G2 cells): can inhibit the proliferation of Hep G2 cells
- in vivo bioavailability [7]: low in vivo bioavailability
- growth of SGC-7901 cells cultured in vitro [8]: significant inhibitory effect
